In ChEMBL document CHEMBL1123638 (J Med Chem, 1987):
≈ marks a conversion by molar mass, not a printed value.

Tests used:
Dihydrofolate reductase [1] = molecular target: T1, Dihydrofolate reductase (Gallus gallus, UniProt P00378); test: Inhibitory activity against dihydrofolate reductase (DHFR) enzyme from chicken liver; conditions: read-out: I50
T1 sequence (P00378 whole entry): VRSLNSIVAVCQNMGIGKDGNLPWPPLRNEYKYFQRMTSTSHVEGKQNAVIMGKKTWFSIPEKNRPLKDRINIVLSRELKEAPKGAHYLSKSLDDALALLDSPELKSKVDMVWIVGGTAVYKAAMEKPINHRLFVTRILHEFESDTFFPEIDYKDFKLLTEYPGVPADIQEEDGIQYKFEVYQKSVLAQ

Dihydrofolate reductase [2] = molecular target: T2, Dihydrofolate reductase (Rattus norvegicus, UniProt Q920D2); test: Inhibitory activity against dihydrofolate reductase (DHFR) enzyme from rat liver; conditions: read-out: I50
T2 sequence (Q920D2 whole entry): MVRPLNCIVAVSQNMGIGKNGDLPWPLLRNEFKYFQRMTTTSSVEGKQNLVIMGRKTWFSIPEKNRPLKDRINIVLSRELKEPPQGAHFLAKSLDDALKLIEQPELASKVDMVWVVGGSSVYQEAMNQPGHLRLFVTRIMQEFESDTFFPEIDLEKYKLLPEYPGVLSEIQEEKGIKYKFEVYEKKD

[3] = molecular target: Bifunctional dihydrofolate reductase-thymidylate synthase (Plasmodium berghei str. ANKA, UniProt Q27713); test: Inhibitory activity against dihydrofolate reductase (DHFR) enzyme from Plasmodium berghei; conditions: read-out: I50
Sequence of Bifunctional dihydrofolate reductase-thymidylate synthase (Q27713 whole entry): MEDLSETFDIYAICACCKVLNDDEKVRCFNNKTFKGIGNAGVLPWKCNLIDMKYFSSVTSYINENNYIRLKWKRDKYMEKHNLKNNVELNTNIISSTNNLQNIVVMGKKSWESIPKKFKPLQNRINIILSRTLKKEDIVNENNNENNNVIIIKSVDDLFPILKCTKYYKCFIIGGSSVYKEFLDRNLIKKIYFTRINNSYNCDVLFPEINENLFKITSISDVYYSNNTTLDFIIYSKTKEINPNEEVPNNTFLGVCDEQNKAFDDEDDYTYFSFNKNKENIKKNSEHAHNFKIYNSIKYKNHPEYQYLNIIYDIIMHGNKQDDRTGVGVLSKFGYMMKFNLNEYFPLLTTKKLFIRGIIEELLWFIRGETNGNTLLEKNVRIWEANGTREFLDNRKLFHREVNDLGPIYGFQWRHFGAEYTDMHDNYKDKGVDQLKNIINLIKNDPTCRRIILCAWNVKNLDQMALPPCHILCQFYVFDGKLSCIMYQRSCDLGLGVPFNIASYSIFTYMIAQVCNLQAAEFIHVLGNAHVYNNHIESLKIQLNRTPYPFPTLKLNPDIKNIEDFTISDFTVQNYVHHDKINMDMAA

Escherichia coli = test: In vitro antibacterial activity against Escherichia coli (CN314)
Klebsiella aerogenes = test: In vitro antibacterial activity against Enterobacter aerogenes (2200/86)
Proteus vulgaris = test: In vitro antibacterial activity against Proteus vulgaris (CN3296)
Shigella flexneri = test: In vitro antibacterial activity against Shigella flexneri (CN6007)
Salmonella = test: In vitro antibacterial activity against Salmonella typhi (CN512)
Staphylococcus aureus = test: In vitro antibacterial activity against Staphylococcus aureus (CN491)
Klebsiella pneumoniae = test: microbe, parasite or virus in culture
Description: In vitro antibacterial activity against Klebsiella pneumoniae (CN 3632)

[4] = Partition coefficient (logP); format: physicochemical; conditions: octanol/water
[5] = Acid dissociation constant was determined; format: ADME

SMILES	IC50 (Dihydrofolate reductase [1])	IC50 (Dihydrofolate reductase [2])	IC50 [3]	MIC (Escherichia coli)	MIC (Klebsiella aerogenes)	MIC (Proteus vulgaris)	MIC (Shigella flexneri)	MIC (Salmonella)	MIC (Staphylococcus aureus)	MIC (Klebsiella pneumoniae)	logP [4]	pKa [5]
COc1ccc(Cc2cnc(N)nc2N)cc1OC [DIAVERIDINE]	300 µM	78 µM	0.21 µM	0.5 µg/mL (≈ 1.92 µM)	0.5 µg/mL (≈ 1.92 µM)	5 µg/mL (≈ 19.2 µM)	0.5 µg/mL (≈ 1.92 µM)	0.1 µg/mL (≈ 0.384 µM)	5 µg/mL (≈ 19.2 µM)	5 µg/mL (≈ 19.2 µM)		
CCc1ccc(Cc2cnc(N)nc2N)cc1C(C)C		29 µM		30 µg/mL (≈ 111 µM)	100 µg/mL (≈ 370 µM)	100 µg/mL (≈ 370 µM)	30 µg/mL (≈ 111 µM)	10 µg/mL (≈ 37 µM)	3 µg/mL (≈ 11.1 µM)	100 µg/mL (≈ 370 µM)		
CCc1ccc(Cc2cnc(N)nc2N)cc1CC	120 µM	59 µM	0.068 µM	3 µg/mL (≈ 11.7 µM)	10 µg/mL (≈ 39 µM)	30 µg/mL (≈ 117 µM)	10 µg/mL (≈ 39 µM)	3 µg/mL (≈ 11.7 µM)	3 µg/mL (≈ 11.7 µM)	30 µg/mL (≈ 117 µM)		
CCc1ccc(Cc2cnc(N)nc2N)cc1		> 40 µM		10 µg/mL (≈ 43.8 µM)	10 µg/mL (≈ 43.8 µM)	30 µg/mL (≈ 131 µM)	10 µg/mL (≈ 43.8 µM)	10 µg/mL (≈ 43.8 µM)	30 µg/mL (≈ 131 µM)	30 µg/mL (≈ 131 µM)		
COc1cc(Cc2cnc(N)nc2N)cc(OC)c1OC [TRIMETHOPRIM]				0.1 µg/mL (≈ 0.344 µM)	0.3 µg/mL (≈ 1.03 µM)	1 µg/mL (≈ 3.44 µM)	0.1 µg/mL (≈ 0.344 µM)	0.03 µg/mL (≈ 0.103 µM)	0.3 µg/mL (≈ 1.03 µM)	1 µg/mL (≈ 3.44 µM)		
COc1ccc(Cc2cnc(N)nc2N)cc1		170 µM										
CC(C)c1ccc(Cc2cnc(N)nc2N)cc1		210 µM		16 µg/mL (≈ 66 µM)		125 µg/mL (≈ 516 µM)	32 µg/mL (≈ 132 µM)	16 µg/mL (≈ 66 µM)	8 µg/mL (≈ 33 µM)			
CCc1cc(Cc2cnc(N)nc2N)cc(CC)c1CC	33 µM	38 µM	0.073 µM	1 µg/mL (≈ 3.52 µM)	10 µg/mL (≈ 35.2 µM)	30 µg/mL (≈ 105 µM)	3 µg/mL (≈ 10.5 µM)	1 µg/mL (≈ 3.52 µM)	0.1 µg/mL (≈ 0.352 µM)	10 µg/mL (≈ 35.2 µM)	1.33	7.12
CC(C)(C)c1ccc(Cc2cnc(N)nc2N)cc1		230 µM		10 µg/mL (≈ 39 µM)	30 µg/mL (≈ 117 µM)	100 µg/mL (≈ 390 µM)	30 µg/mL (≈ 117 µM)	10 µg/mL (≈ 39 µM)	10 µg/mL (≈ 39 µM)	100 µg/mL (≈ 390 µM)		
